The values that follow are results of earlier work, collected in patent US20250057829A1, “INHIBITORS OF TRPC6 FOR TREATING FOCAL SEGMENTAL GLOMERULOSCLEROSIS” (Boehringer Ingelheim International GmbH, priority 2023, published 2025).

The test system of the data set is adults and children with steroid resistant FSGS. The settings on record: week 8, follow-up vs. baseline; cited from earlier work.

For the substance “mycophenolate mofetil/dexamethasone [MMF/DEX]”, the “reduction of UPCR” value is about 50%.
